Data published in US9670206B2, “Pyrido[4,3-B]pyrazine-2-carboxamides as neurogenic agents for the treatment of neurodegenerative disorders” (Hoffmann-La Roche Inc., priority 2013, dated 2017).

Test system: human embryonic stem cell derived neural stem cells (NSCs)
Experiment: Neural stem cell proliferation assay (neurogenesis assay, ATP levels by CellTiterGlo)
Type: cell-based
Details: 96 h, compound concentration at which 150% activity of control (100%) is reached, NSC proliferation, ATP readout after 4 days incubation
Experimental: Neural Stem Cell Proliferation Assay
Neurogenic properties of small molecules are determined based on the proliferation of human embryonic stem cell derived neural stem cells (NSCs) which were derived via a dual smad inhibition as previously described (Chambers, S. M., et al., Highly efficient neural conversion of human ES and iPS cells by dual inhibition of SMAD signaling, Nature biotechnology, 2009. 27(3): p. 275-80.) Compounds respond is measured by the increase in cells based on ATP levels (Promega:CellTiterGlo®) after an incubation period of 4 days. NSCs are thawed and expanded over 3 passages. On the 14th day, NSCs are seeded in Polyornithin/Laminin coated 384 well plates at a cell density of 21,000 cells/cm^2 in a media volume of 38 μl. 4 hours after cell seeding, compound solutions are added at a volume of 2 μl. Stock solutions of the compounds (water, 5% DMSO) are diluted to obtain a dose response (11 points, dilution factor is 2), ranging from 8 μM to 8 nM. Controls are run to consistently determine the neurogenic properties of the cells: Negative (neutral) control is cell culture Media (final DMSO concentration: 0.25%). Positive controls are: • 1. cell culture Media+100 ng/ml FGF2 (final DMSO concentration: 0.1%) • 2. cell culture Media+20 ng/ml EGF (final DMSO concentration: 0.1%) • 3. cell culture Media+100 ng/ml Wnt3a (final DMSO concentration: 0.1%) After 4 days incubation at 37° C., 5% CO2, the amount of ATP per well is quantified. The ATP concentration is proportional to the cell number. ATP is quantified by using the Promega CellTiterGlo® kit. The CellTiterGlo® reagents contain a cell lysis buffer, a thermo stable luciferase (UltraGlo™ recombinant luciferase), magnesium and luciferin. Luciferin reacts with ATP producing oxyluciferin, AMP and light. The luminescence signal is proportional to the ATP content. The value of negative (neutral) control is determined for each assay plate by taking the average of 16 negative control wells. The neurogenic compound response is calculated for each compound as (compound/Negative Control)*100. The values of EC150 from the dose response curve are determined for each test compound. The EC150 is the compound concentration at which 150% activity of control (100%) is reached.

Q: How did the EC (150% of control) turn out when `O=C(c1cnc2cncc(-c3ccc(C(F)(F)F)cc3)c2n1)N1CCC(O)C1` (stereo not shown) [Example 28, (3-Hydroxypyrrolidin-1-yl)(8-(4-(trifluoromethyl)phenyl)pyrido[4,3-b]pyrazin-2-yl)methanone] was run?
A: 0.29 µM

Q: With `CC(NC(=O)c1cnc2cncc(-c3ccc(Cl)cc3)c2n1)C(C)(C)O` (stereo not shown) [Example 5, 8-(4-Chlorophenyl)-N-(3-hydroxy-3-methylbutan-2-yl)pyrido[4,3-b]pyrazine-2-carboxamide] as the compound, how does the EC (150% of control) read?
A: 0.89 µM

Q: How did the EC (150% of control) turn out when `O=C(c1cnc2cncc(-c3ccc(C(F)(F)F)cc3F)c2n1)N1CCC(O)C1` (stereo not shown) [Example 45, (8-(2-Fluoro-4-(trifluoromethyl)phenyl)pyrido[4,3-b]pyrazin-2-yl)(3-hydroxypyrrolidin-1-yl)methanone] was run?
A: 1.48 µM

Q: With `O=C(c1cnc2cncc(-c3ccc(Cl)cc3)c2n1)N1CCOCC1` [Example 9, (8-(4-Chlorophenyl)pyrido[4,3-b]pyrazin-2-yl)(morpholino)methanone] as the compound, how does the EC (150% of control) read?
A: 0.65 µM

Q: Which EC (150% of control) does the source give for `NC(=O)c1cnc2cncc(-c3ccc(F)c(F)c3)c2n1` [Example 27, 8-(3,4-Difluorophenyl)pyrido[4,3-b]pyrazine-2-carboxamide] here?
A: 0.12 µM

Q: Which EC (150% of control) does the source give for `O=C(c1cnc2cncc(-c3ccc(Cl)c(F)c3)c2n1)N1CCC(O)C1` (stereo not shown) [Example 44, (8-(4-Chloro-3-fluorophenyl)pyrido[4,3-b]pyrazin-2-yl)(3-hydroxypyrrolidin-1-yl)methanone] here?
A: 0.27 µM

Q: Which EC (150% of control) does the source give for `CC(NC(=O)c1cnc2cncc(-c3ccnn3C)c2n1)C(C)(C)O` (stereo not shown) [Example 49, N-(3-Hydroxy-3-methylbutan-2-yl)-8-(1-methyl-1H-pyrazol-5-yl)pyrido[4,3-b]pyrazine-2-carboxamide] here?
A: 0.02 µM

Q: Which EC (150% of control) does the source give for `O=C(c1cnc2cncc(-c3ccc(Cl)cc3Cl)c2n1)N1CCC(O)C1` (stereo not shown) [Example 39, (8-(2,4-Dichlorophenyl)pyrido[4,3-b]pyrazin-2-yl)(3-hydroxypyrrolidin-1-yl)methanone] here?
A: 0.11 µM

Q: For `CC(NC(=O)c1cnc2cncc(-c3ccc(Cl)c(F)c3)c2n1)C(C)(C)O` (stereo not shown) [Example 46, 8-(4-Chloro-3-fluorophenyl)-N-(3-hydroxy-3-methylbutan-2-yl)pyrido[4,3-b]pyrazine-2-carboxamide], which EC (150% of control) is on record?
A: 0.29 µM

Q: Which EC (150% of control) does the source give for `NC(=O)c1cnc2cncc(-c3cc(F)c(F)c(F)c3)c2n1` [Example 15, 8-(3,4,5-Trifluorophenyl)pyrido[4,3-b]pyrazine-2-carboxamide] here?
A: 0.55 µM

Q: `O=C(c1cnc2cncc(-c3cc(C(F)(F)F)ccc3F)c2n1)N1CCC(O)C1` (stereo not shown) [Example 40, (8-(2-Fluoro-5-(trifluoromethyl)phenyl)pyrido[4,3-b]pyrazin-2-yl)(3-hydroxypyrrolidin-1-yl)methanone] was tested. Which EC (150% of control) did it give?
A: 0.93 µM

Q: With `N#CC1(NC(=O)c2cnc3cncc(-c4ccc(C(F)(F)F)cc4)c3n2)CC1` [Example 8, N-(1-Cyanocyclopropyl)-8-(4-(trifluoromethyl)phenyl)pyrido[4,3-b]pyrazine-2-carboxamide] as the compound, how does the EC (150% of control) read?
A: 0.39 µM

Q: `Cn1nccc1-c1cncc2ncc(C(N)=O)nc12` [Example 50, 8-(1-Methyl-1H-pyrazol-5-yl)pyrido[4,3-b]pyrazine-2-carboxamide] was tested. Which EC (150% of control) did it give?
A: 0.02 µM

Q: For `CC(NC(=O)c1cnc2cncc(-c3ccccc3Cl)c2n1)C(C)(C)O` (stereo not shown) [Example 37, 8-(2-Chlorophenyl)-N-(3-hydroxy-3-methylbutan-2-yl)pyrido[4,3-b]pyrazine-2-carboxamide], which EC (150% of control) is on record?
A: 1.13 µM

Q: How did the EC (150% of control) turn out when `NC(=O)c1cnc2cncc(N3CCC(F)(F)CC3)c2n1` [Example 42, 8-(4,4-Difluoropiperidin-1-yl)pyrido[4,3-b]pyrazine-2-carboxamide] was run?
A: 0.09 µM

Q: `O=C(c1cnc2cncc(-c3ccc(C(F)(F)F)cc3)c2n1)N1CCS(=O)(=O)CC1` [Example 33, (1,1-Dioxo-1,4-thiazinan-4-yl)-[8-[4-(trifluoromethyl)phenyl]pyrido[3,4-b]pyrazin-2-yl]methanone] was tested. Which EC (150% of control) did it give?
A: 1.65 µM

Q: For `CC(NC(=O)c1cnc2cncc(-c3cc(F)c(F)c(F)c3)c2n1)C(C)(C)O` (stereo not shown) [Example 47, N-(3-Hydroxy-3-methylbutan-2-yl)-8-(3,4,5-trifluorophenyl)pyrido[4,3-b]pyrazine-2-carboxamide], which EC (150% of control) is on record?
A: 0.03 µM

Q: With `NC(=O)c1cnc2cncc(-c3ccc(Cl)cc3)c2n1` [Example 1, 8-(4-Chlorophenyl)pyrido[4,3-b]pyrazine-2-carboxamide] as the compound, how does the EC (150% of control) read?
A: 0.21 µM

Q: With `N#CC1(NC(=O)c2cnc3cncc(-c4ccc(Cl)cc4)c3n2)CC1` [Example 7, 8-(4-Chlorophenyl)-N-(1-cyanocyclopropyl)pyrido[4,3-b]pyrazine-2-carboxamide] as the compound, how does the EC (150% of control) read?
A: 0.39 µM

Q: Which EC (150% of control) does the source give for `O=C(c1cnc2cncc(-c3ccc(Cl)cc3)c2n1)N1CCC(O)C1` (stereo not shown) [Example 30, (8-(4-Chlorophenyl)pyrido[4,3-b]pyrazin-2-yl)(3-hydroxypyrrolidin-1-yl)methanone] here?
A: 0.69 µM

Q: `NC(=O)c1cnc2cncc(-c3ccc(OC(F)(F)F)cc3)c2n1` [Example 19, 8-(4-(Trifluoromethoxy)phenyl)pyrido[4,3-b]pyrazine-2-carboxamide] was tested. Which EC (150% of control) did it give?
A: 0.09 µM

Q: How did the EC (150% of control) turn out when `O=C(c1cnc2cncc(Br)c2n1)N1CCOCC1` [Example 4, (8-Bromopyrido[4,3-b]pyrazin-2-yl)(morpholino)methanone] was run?
A: 0.07 µM

Q: With `NC(=O)c1cnc2cncc(-c3cccc(OC(F)(F)F)c3)c2n1` [Example 21, 8-(3-(Trifluoromethoxy)phenyl)pyrido[4,3-b]pyrazine-2-carboxamide] as the compound, how does the EC (150% of control) read?
A: 0.21 µM

Q: For `O=C(NCc1ccccc1)c1cnc2cncc(-c3ccc(C(F)(F)F)cc3)c2n1` [Example 11, N-Benzyl-8-(4-(trifluoromethyl)phenyl)pyrido[4,3-b]pyrazine-2-carboxamide], which EC (150% of control) is on record?
A: 0.41 µM

Q: Which EC (150% of control) does the source give for `NC(=O)c1cnc2cncc(-c3cc(C(F)(F)F)ccc3F)c2n1` [Example 20, 8-(2-Fluoro-5-(trifluoromethyl)phenyl)pyrido[4,3-b]pyrazine-2-carboxamide] here?
A: 0.22 µM

Q: With `O=C(c1cnc2cncc(-c3ccc(C(F)(F)F)c(F)c3)c2n1)N1CCC(O)C1` (stereo not shown) [Example 52, (8-(3-Fluoro-4-(trifluoromethyl)phenyl)pyrido[4,3-b]pyrazin-2-yl)(3-hydroxypyrrolidin-1-yl)methanone] as the compound, how does the EC (150% of control) read?
A: 0.07 µM

Q: `Cc1cccc(-c2cncc3ncc(C(=O)NC(C)C(C)(C)O)nc23)n1` (stereo not shown) [Example 53, N-(3-Hydroxy-3-methylbutan-2-yl)-8-(6-methylpyridin-2-yl)pyrido[4,3-b]pyrazine-2-carboxamide] was tested. Which EC (150% of control) did it give?
A: 0.5 µM

Q: `NC(=O)c1cnc2cncc(C3=CCOCC3)c2n1` [Example 25, 8-(3,6-Dihydro-2H-pyran-4-yl)pyrido[4,3-b]pyrazine-2-carboxamide] was tested. Which EC (150% of control) did it give?
A: 0.66 µM

Q: With `N#Cc1ccc(-c2cncc3ncc(C(N)=O)nc23)cc1` [Example 34, 8-(4-Cyanophenyl)pyrido[4,3-b]pyrazine-2-carboxamide] as the compound, how does the EC (150% of control) read?
A: 0.15 µM

Q: With `NC(=O)c1cnc2cncc(-c3ccc(CO)cc3)c2n1` [Example 29, 8-(4-(Hydroxymethyl)phenyl)pyrido[4,3-b]pyrazine-2-carboxamide] as the compound, how does the EC (150% of control) read?
A: 0.05 µM

Q: How did the EC (150% of control) turn out when `O=C(NCc1ccccc1)c1cnc2cncc(-c3ccc(Cl)cc3)c2n1` [Example 12, N-Benzyl-8-(4-chlorophenyl)pyrido[4,3-b]pyrazine-2-carboxamide] was run?
A: 0.26 µM

Q: For `NC(=O)c1cnc2cncc(-c3ccc(C(F)(F)F)cc3)c2n1` [Example 2, 8-(4-(Trifluoromethyl)phenyl)pyrido[4,3-b]pyrazine-2-carboxamide], which EC (150% of control) is on record?
A: 0.3 µM

Q: Which EC (150% of control) does the source give for `NC(=O)c1cnc2cncc(-c3ccc(Cl)nc3)c2n1` [Example 18, 8-(6-Chloropyridin-3-yl)pyrido[4,3-b]pyrazine-2-carboxamide] here?
A: 0.21 µM

Q: With `NC(=O)c1cnc2cncc(-c3ccccc3F)c2n1` [Example 16, 8-(2-Fluorophenyl)pyrido[4,3-b]pyrazine-2-carboxamide] as the compound, how does the EC (150% of control) read?
A: 0.06 µM

Q: With `NC(=O)c1cnc2cncc(-c3ccc(C(F)(F)F)cc3F)c2n1` [Example 17, 8-(2-Fluoro-4-(trifluoromethyl)phenyl)pyrido[4,3-b]pyrazine-2-carboxamide] as the compound, how does the EC (150% of control) read?
A: 0.08 µM

Q: With `CC(C)(C)NC(=O)c1cnc2cncc(-c3ccc(C(F)(F)F)cc3)c2n1` [Example 35, N-tert-Butyl-8-(4-(trifluoromethyl)phenyl)pyrido[4,3-b]pyrazine-2-carboxamide] as the compound, how does the EC (150% of control) read?
A: 0.32 µM

Q: Which EC (150% of control) does the source give for `O=C(c1cnc2cncc(-c3ccc(Cl)cc3F)c2n1)N1CCC(O)C1` (stereo not shown) [Example 38, (8-(4-Chloro-2-fluorophenyl)pyrido[4,3-b]pyrazin-2-yl)(3-hydroxypyrrolidin-1-yl)methanone] here?
A: 0.1 µM
